According to ChEMBL document CHEMBL4422610, “HDAC as onco target: Reviewing the synthetic approaches with SAR study of their inhibitors” (Eur J Med Chem, 2018):

Tests used:
[1] = biological target: T1, Protein deacetylase HDAC6 (Homo sapiens, UniProt Q9UBN7); experiment: Inhibition of human HDAC6 using fluorogenic HDAC substrate
T1 sequence (Q9UBN7 whole entry): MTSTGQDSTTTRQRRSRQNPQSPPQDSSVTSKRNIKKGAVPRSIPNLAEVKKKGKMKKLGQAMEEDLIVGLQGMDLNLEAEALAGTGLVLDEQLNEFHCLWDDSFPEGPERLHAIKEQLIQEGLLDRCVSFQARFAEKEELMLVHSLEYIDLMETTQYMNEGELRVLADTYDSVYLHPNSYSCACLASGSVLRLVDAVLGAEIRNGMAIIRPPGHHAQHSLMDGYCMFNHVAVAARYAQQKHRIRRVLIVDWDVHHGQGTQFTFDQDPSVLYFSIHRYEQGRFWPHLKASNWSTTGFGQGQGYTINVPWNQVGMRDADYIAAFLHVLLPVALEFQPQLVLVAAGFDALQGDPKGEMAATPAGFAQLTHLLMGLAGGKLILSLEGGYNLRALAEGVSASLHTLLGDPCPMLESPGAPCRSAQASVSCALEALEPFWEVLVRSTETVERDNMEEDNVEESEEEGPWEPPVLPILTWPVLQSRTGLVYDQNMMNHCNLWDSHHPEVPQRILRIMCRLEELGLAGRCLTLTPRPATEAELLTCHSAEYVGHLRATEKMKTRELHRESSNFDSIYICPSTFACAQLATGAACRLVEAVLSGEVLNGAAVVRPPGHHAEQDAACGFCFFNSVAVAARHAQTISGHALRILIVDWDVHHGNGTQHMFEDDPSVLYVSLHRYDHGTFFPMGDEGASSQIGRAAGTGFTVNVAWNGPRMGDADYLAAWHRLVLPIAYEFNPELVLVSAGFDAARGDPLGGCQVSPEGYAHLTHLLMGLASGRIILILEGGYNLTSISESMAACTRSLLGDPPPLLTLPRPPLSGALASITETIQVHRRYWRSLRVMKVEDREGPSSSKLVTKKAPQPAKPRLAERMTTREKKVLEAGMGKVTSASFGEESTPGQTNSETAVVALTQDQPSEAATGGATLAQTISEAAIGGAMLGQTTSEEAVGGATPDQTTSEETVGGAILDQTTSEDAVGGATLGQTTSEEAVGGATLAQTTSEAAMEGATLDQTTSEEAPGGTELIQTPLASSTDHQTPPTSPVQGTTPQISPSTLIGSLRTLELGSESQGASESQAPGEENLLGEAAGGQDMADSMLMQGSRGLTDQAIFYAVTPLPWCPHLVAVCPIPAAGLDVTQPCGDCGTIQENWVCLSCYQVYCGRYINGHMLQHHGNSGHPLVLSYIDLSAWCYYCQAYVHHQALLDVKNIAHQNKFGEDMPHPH

Histone deacetylase 7 = biological target: T2, Histone deacetylase 7 (Homo sapiens, UniProt Q8WUI4); experiment: Inhibition of human HDAC7 using fluorogenic HDAC substrate
T2 sequence (Q8WUI4 whole entry): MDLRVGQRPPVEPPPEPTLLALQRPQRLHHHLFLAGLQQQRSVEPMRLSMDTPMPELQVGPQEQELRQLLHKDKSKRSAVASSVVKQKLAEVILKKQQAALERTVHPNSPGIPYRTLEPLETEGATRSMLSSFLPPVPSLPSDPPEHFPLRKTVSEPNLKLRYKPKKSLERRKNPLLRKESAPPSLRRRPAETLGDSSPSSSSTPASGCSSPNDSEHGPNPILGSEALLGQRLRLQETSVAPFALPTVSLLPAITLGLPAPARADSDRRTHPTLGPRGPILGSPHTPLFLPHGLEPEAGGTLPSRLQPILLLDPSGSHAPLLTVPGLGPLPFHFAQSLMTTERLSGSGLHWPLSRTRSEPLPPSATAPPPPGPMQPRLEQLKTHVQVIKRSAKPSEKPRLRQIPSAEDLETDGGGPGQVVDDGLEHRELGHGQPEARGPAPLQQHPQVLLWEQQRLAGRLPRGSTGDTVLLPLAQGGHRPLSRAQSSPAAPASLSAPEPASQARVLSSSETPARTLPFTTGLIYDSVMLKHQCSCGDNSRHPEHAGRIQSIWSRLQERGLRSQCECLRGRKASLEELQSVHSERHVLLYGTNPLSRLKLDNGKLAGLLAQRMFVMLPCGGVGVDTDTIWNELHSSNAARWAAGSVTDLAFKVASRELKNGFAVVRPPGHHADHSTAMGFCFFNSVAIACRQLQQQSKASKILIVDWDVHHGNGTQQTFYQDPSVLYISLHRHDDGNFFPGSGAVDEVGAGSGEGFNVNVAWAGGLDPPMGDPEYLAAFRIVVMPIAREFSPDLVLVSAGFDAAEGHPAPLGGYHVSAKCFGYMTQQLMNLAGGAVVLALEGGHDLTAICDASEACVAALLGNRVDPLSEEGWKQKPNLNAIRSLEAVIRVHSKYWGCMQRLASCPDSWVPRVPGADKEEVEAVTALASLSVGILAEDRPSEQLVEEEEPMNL

Histone deacetylase 2 = Histone deacetylase 2 (Homo sapiens, UniProt Q92769); experiment: Inhibition of human HDAC2 using fluorogenic HDAC substrate
Sequence of Histone deacetylase 2 (Q92769 whole entry): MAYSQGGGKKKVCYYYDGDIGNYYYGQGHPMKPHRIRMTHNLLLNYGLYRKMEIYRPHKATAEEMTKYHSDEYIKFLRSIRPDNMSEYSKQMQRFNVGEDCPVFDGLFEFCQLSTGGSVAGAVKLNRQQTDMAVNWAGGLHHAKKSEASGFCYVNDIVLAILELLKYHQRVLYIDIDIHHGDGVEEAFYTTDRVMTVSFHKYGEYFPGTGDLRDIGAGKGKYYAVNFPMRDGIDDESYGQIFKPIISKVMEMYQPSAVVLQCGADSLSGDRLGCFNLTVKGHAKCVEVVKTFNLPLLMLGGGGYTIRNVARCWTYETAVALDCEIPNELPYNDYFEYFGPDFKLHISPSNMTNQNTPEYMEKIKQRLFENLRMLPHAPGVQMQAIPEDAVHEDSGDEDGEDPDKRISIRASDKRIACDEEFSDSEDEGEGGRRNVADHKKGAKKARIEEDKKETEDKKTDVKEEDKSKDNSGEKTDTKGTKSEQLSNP

Histone deacetylase 1 = Histone deacetylase 1 (Homo sapiens, UniProt Q13547); experiment: Inhibition of human HDAC1 using fluorogenic HDAC substrate
Sequence of Histone deacetylase 1 (Q13547 whole entry): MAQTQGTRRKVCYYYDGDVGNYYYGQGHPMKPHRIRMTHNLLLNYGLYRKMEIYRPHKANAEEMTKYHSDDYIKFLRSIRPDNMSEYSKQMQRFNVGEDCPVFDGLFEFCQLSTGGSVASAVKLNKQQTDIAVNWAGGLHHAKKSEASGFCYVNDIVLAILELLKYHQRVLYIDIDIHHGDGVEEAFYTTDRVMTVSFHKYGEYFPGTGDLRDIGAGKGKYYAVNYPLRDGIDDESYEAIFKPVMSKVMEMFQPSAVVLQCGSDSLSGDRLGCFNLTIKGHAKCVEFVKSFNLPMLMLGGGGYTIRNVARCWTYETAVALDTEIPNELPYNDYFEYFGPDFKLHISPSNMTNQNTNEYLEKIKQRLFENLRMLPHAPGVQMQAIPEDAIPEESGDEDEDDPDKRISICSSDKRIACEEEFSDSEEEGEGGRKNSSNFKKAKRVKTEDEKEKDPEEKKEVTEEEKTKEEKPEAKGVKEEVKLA

Histone deacetylase 3 = Histone deacetylase 3 (Homo sapiens, UniProt O15379); experiment: Inhibition of human HDAC3 using fluorogenic HDAC substrate
Sequence of Histone deacetylase 3 (O15379 whole entry): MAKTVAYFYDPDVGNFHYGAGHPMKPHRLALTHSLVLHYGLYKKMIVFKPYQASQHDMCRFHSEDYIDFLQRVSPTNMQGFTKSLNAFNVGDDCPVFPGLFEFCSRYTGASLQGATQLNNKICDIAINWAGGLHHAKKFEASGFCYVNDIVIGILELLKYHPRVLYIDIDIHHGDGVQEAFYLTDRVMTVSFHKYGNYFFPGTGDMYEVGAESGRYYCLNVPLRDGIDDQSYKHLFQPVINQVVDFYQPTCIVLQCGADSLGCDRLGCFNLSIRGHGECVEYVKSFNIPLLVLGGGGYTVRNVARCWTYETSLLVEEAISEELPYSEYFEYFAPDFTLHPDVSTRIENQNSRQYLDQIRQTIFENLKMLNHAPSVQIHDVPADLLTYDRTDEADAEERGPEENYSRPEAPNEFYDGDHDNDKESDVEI

[2] = biological target: T3, Polyamine deacetylase HDAC10 (Homo sapiens, UniProt Q969S8); experiment: Inhibition of human HDAC10 using fluorogenic HDAC substrate
T3 sequence (Q969S8 whole entry): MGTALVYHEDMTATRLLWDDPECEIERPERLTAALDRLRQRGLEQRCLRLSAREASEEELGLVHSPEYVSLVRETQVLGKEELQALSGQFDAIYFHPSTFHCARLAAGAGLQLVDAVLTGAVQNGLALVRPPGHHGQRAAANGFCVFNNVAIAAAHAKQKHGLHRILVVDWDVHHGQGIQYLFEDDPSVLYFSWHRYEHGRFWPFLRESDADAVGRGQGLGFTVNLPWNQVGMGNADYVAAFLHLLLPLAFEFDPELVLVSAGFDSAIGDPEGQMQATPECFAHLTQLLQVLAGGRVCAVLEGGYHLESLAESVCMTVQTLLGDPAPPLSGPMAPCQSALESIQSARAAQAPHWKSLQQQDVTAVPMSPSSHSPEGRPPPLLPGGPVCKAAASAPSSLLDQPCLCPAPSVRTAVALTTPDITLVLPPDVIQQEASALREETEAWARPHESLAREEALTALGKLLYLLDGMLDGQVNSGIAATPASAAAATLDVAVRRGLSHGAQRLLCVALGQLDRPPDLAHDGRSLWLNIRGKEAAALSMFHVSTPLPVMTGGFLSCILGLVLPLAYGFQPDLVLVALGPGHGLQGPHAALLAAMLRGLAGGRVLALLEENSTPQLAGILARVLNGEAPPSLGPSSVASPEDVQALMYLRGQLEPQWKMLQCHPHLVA

O=C(NO)c1ccc(CN2c3ccccc3CC[C@@H]3CCCC[C@H]32)cc1
IC50 [1]: 0.006 µM | IC50 (Histone deacetylase 7): > 30 µM | IC50 (Histone deacetylase 2): 26 µM | IC50 (Histone deacetylase 1): 4.9 µM | IC50 (Histone deacetylase 3): > 30 µM | IC50 [2]: 14 µM
